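Following 48 hours of exposure in 96-well plates, responses at five concentrations were used to interpolate endpoints linearly. At the GI50, growth is halved. TGI: concentration producing complete growth inhibition.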
Experiments:
Experiment in all cases: NCI anticancer screen, dose series, 48 h; in the data active = GI50 below about 0.43 µM; inactive = the rest
786-0 renal = system: 786-0 renal
A498 renal = system: A498 renal
A549 NSCLC = system: A549 NSCLC
ACHN renal = system: ACHN renal
BT-549 breast = system: BT-549 breast
CAKI-1 renal = system: CAKI-1 renal
CCRF-CEM leukemia = system: CCRF-CEM leukemia
COLO 205 colon = system: COLO 205 colon
DU-145 prostate = system: DU-145 prostate
EKVX NSCLC = system: EKVX NSCLC
HCC-2998 colon = system: HCC-2998 colon
HCT-116 colon = system: HCT-116 colon
HCT-15 colon = system: HCT-15 colon
HOP-62 NSCLC = system: HOP-62 NSCLC
HOP-92 NSCLC = system: HOP-92 NSCLC
HS 578T breast = system: HS 578T breast
HT29 colon = system: HT29 colon
IGROV1 ovarian = system: IGROV1 ovarian
K-562 leukemia = system: K-562 leukemia
KM12 colon = system: KM12 colon
LOX IMVI melanoma = system: LOX IMVI melanoma
M14 melanoma = system: M14 melanoma
MALME-3M melanoma = system: MALME-3M melanoma
MCF7 breast = system: MCF7 breast
MDA-MB-231 breast = system: MDA-MB-231 breast
MOLT-4 leukemia = system: MOLT-4 leukemia
NCI-H226 lung = system: NCI-H226 lung
NCI-H23 lung = system: NCI-H23 lung
NCI-H460 lung = system: NCI-H460 lung
NCI-H522 lung = system: NCI-H522 lung
NCI/ADR-RES ovarian = system: NCI/ADR-RES ovarian
OVCAR-3 ovarian = system: OVCAR-3 ovarian
OVCAR-4 ovarian = system: OVCAR-4 ovarian
OVCAR-5 ovarian = system: OVCAR-5 ovarian
OVCAR-8 ovarian = system: OVCAR-8 ovarian
PC-3 prostate = system: PC-3 prostate
RPMI-8226 leukemia = system: RPMI-8226 leukemia
RXF 393 renal = system: RXF 393 renal
SF-268 CNS = system: SF-268 CNS
SF-295 CNS = system: SF-295 CNS
SF-539 CNS = system: SF-539 CNS
SK-MEL-2 melanoma = system: SK-MEL-2 melanoma
SK-MEL-28 melanoma = system: SK-MEL-28 melanoma
SK-MEL-5 melanoma = system: SK-MEL-5 melanoma
SK-OV-3 ovarian = system: SK-OV-3 ovarian
SN12C renal = system: SN12C renal
SNB-19 CNS = system: SNB-19 CNS
SNB-75 CNS = system: SNB-75 CNS
SW-620 colon = system: SW-620 colon
T-47D breast = system: T-47D breast
TK-10 renal = system: TK-10 renal
U251 CNS = system: U251 CNS
UACC-257 melanoma = system: UACC-257 melanoma
UACC-62 melanoma = system: UACC-62 melanoma
UO-31 renal = system: UO-31 renal

COc1cccc(/C(COc2ccc3c(c2)oc(=O)c2cc(OC)ccc23)=N/O)c1
9.61 µM: TGI (SNB-75 CNS)
80.5 µM: TGI (SK-MEL-5 melanoma)
9.47 µM: TGI (NCI-H522 lung)
81.5 µM: TGI (SF-539 CNS)
25.8 µM: TGI (A498 renal)
75.6 µM: TGI (UO-31 renal)
inactive: GI50 (786-0 renal) 9.66 µM | GI50 (A498 renal) 3.02 µM | GI50 (A549 NSCLC) 7.57 µM | GI50 (ACHN renal) 3.64 µM | GI50 (BT-549 breast) 11.7 µM | GI50 (CAKI-1 renal) 6.7 µM | GI50 (CCRF-CEM leukemia) 11.4 µM | GI50 (COLO 205 colon) 4.25 µM | GI50 (DU-145 prostate) 26 µM | GI50 (EKVX NSCLC) 16.1 µM | GI50 (HCC-2998 colon) 7.78 µM | GI50 (HCT-116 colon) 4.27 µM | GI50 (HCT-15 colon) 3.99 µM | GI50 (HOP-62 NSCLC) 6.9 µM | GI50 (HOP-92 NSCLC) 37 µM | GI50 (HS 578T breast) 14.5 µM | GI50 (HT29 colon) 3.38 µM | GI50 (IGROV1 ovarian) 3.8 µM | GI50 (K-562 leukemia) 4.43 µM | GI50 (KM12 colon) 3.86 µM | GI50 (LOX IMVI melanoma) 7.14 µM | GI50 (M14 melanoma) 3.62 µM | GI50 (MALME-3M melanoma) > 100 µM | GI50 (MCF7 breast) 4.02 µM | GI50 (MDA-MB-231 breast) 4.37 µM | GI50 (MOLT-4 leukemia) 5.61 µM | GI50 (NCI-H226 lung) 51.9 µM | GI50 (NCI-H23 lung) 33.4 µM | GI50 (NCI-H460 lung) 3.81 µM | GI50 (NCI-H522 lung) 3.12 µM | GI50 (NCI/ADR-RES ovarian) 3.63 µM | GI50 (OVCAR-3 ovarian) 4.18 µM | GI50 (OVCAR-4 ovarian) 18.8 µM | GI50 (OVCAR-5 ovarian) > 100 µM | GI50 (OVCAR-8 ovarian) 9.77 µM | GI50 (PC-3 prostate) 6.29 µM | GI50 (RPMI-8226 leukemia) 4.76 µM | GI50 (RXF 393 renal) > 100 µM | GI50 (SF-268 CNS) 9.58 µM | GI50 (SF-295 CNS) 8.22 µM | GI50 (SF-539 CNS) 6.55 µM | GI50 (SK-MEL-2 melanoma) 6.62 µM | GI50 (SK-MEL-28 melanoma) 4.28 µM | GI50 (SK-MEL-5 melanoma) 4.95 µM | GI50 (SK-OV-3 ovarian) 66.1 µM | GI50 (SN12C renal) 14.2 µM | GI50 (SNB-19 CNS) 3.66 µM | GI50 (SNB-75 CNS) 2.36 µM | GI50 (SW-620 colon) 3.9 µM | GI50 (T-47D breast) 4.85 µM | GI50 (TK-10 renal) 16.5 µM | GI50 (U251 CNS) 4.35 µM | GI50 (UACC-257 melanoma) 34.8 µM | GI50 (UACC-62 melanoma) 4.25 µM | GI50 (UO-31 renal) 7.11 µM
> 100 µM: TGI (786-0 renal) | TGI (A549 NSCLC) | TGI (ACHN renal) | TGI (BT-549 breast) | TGI (CAKI-1 renal) | TGI (CCRF-CEM leukemia) | TGI (COLO 205 colon) | TGI (DU-145 prostate) | TGI (EKVX NSCLC) | TGI (HCC-2998 colon) | TGI (HCT-116 colon) | TGI (HCT-15 colon) | TGI (HOP-62 NSCLC) | TGI (HOP-92 NSCLC) | TGI (HS 578T breast) | TGI (HT29 colon) | TGI (IGROV1 ovarian) | TGI (K-562 leukemia) | TGI (KM12 colon) | TGI (LOX IMVI melanoma) | TGI (M14 melanoma) | TGI (MALME-3M melanoma) | TGI (MCF7 breast) | TGI (MOLT-4 leukemia) | TGI (NCI-H226 lung) | TGI (NCI-H23 lung) | TGI (NCI-H460 lung) | TGI (NCI/ADR-RES ovarian) | TGI (OVCAR-3 ovarian) | TGI (OVCAR-4 ovarian) | TGI (OVCAR-5 ovarian) | TGI (OVCAR-8 ovarian) | TGI (PC-3 prostate) | TGI (RPMI-8226 leukemia) | TGI (RXF 393 renal) | TGI (SF-268 CNS) | TGI (SF-295 CNS) | TGI (SK-MEL-2 melanoma) | TGI (SK-MEL-28 melanoma) | TGI (SK-OV-3 ovarian) | TGI (SN12C renal) | TGI (SNB-19 CNS) | TGI (SW-620 colon) | TGI (T-47D breast) | TGI (TK-10 renal) | TGI (U251 CNS) | TGI (UACC-257 melanoma) | TGI (UACC-62 melanoma)
71 µM: TGI (MDA-MB-231 breast)
